{"source": "ChEMBL document CHEMBL1201862", "about": "“PubChem BioAssay data set” (2004)", "test_in_all_cases": "NCI-60 cell line screen, 48 h", "key": {"[1]": {"tested_on": "SK-OV-3"}, "[2]": {"tested_on": "786-0"}, "[3]": {"tested_on": "HT-29"}, "[4]": {"tested_on": "DU-145"}, "[5]": {"tested_on": "SK-MEL-28"}, "[6]": {"tested_on": "MDA-MB-435"}, "[7]": {"tested_on": "U-251"}, "[8]": {"tested_on": "SK-MEL-2"}, "[9]": {"tested_on": "TK-10"}, "[10]": {"tested_on": "ACHN"}, "[11]": {"tested_on": "OVCAR-8"}, "[12]": {"tested_on": "PC-3"}, "[13]": {"tested_on": "HCT-15"}, "[14]": {"tested_on": "CAKI-1"}, "[15]": {"tested_on": "NCI-H23"}, "[16]": {"tested_on": "MOLT-4"}, "[17]": {"tested_on": "SNB-19"}, "[18]": {"tested_on": "NCI-H522"}, "[19]": {"tested_on": "UACC-62"}, "[20]": {"tested_on": "OVCAR-3"}, "[21]": {"tested_on": "OVCAR-4"}, "[22]": {"tested_on": "HOP-62"}, "[23]": {"tested_on": "HCC 2998"}, "[24]": {"tested_on": "SF-539"}, "[25]": {"tested_on": "M14"}, "[26]": {"tested_on": "RXF 393"}, "[27]": {"tested_on": "NCI-H460"}, "[28]": {"tested_on": "EKVX"}, "[29]": {"tested_on": "HCT-116"}, "[30]": {"tested_on": "KM12"}, "[31]": {"tested_on": "HL-60"}, "[32]": {"tested_on": "RPMI-8226"}, "[33]": {"tested_on": "UACC-257"}, "[34]": {"tested_on": "T47D"}, "[35]": {"tested_on": "MCF7"}, "[36]": {"tested_on": "BT-549"}, "[37]": {"tested_on": "COLO 205"}, "[38]": {"tested_on": "Hs-578T"}, "[39]": {"tested_on": "NCI/ADR-RES"}, "[40]": {"tested_on": "HOP-92"}, "[41]": {"tested_on": "SN12C"}, "[42]": {"tested_on": "SW-620"}, "[43]": {"tested_on": "MDA-MB-231"}, "[44]": {"tested_on": "SF-268"}, "[45]": {"tested_on": "CCRF-CEM"}, "[46]": {"tested_on": "A498"}, "[47]": {"tested_on": "NCI-H226"}, "[48]": {"tested_on": "MDA-N"}, "[49]": {"tested_on": "SF-295"}, "[50]": {"tested_on": "A549"}, "[51]": {"tested_on": "K562"}, "[52]": {"tested_on": "Malme-3M"}, "[53]": {"tested_on": "OVCAR-5"}, "[54]": {"tested_on": "IGROV-1"}, "[55]": {"tested_on": "LOX IMVI"}, "[56]": {"tested_on": "SK-MEL-5"}, "[57]": {"tested_on": "SNB-75"}, "[58]": {"tested_on": "UO-31"}}, "note": "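Cultured in 96-well plates, cells were exposed to test compound for 48 hours across five concentrations. GI50 marks 50% less growth.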 Activity calls are given as the source filed them. No stated cut-off is given here; in the data, active = GI50 up to about 1.1 µM and inactive = higher."}
{"smiles": "COc1cccc(OCC(=N/NC(=O)c2ccncc2)/N=C/c2ccncc2)c1", "values": [{"measurement": "GI50", "setting": "[1]", "value": "> 100 µM (inactive)"}, {"measurement": "GI50", "setting": "[2]", "value": "> 100 µM (inactive)"}, {"measurement": "GI50", "setting": "[3]", "value": "> 100 µM (inactive)"}, {"measurement": "GI50", "setting": "[4]", "value": "> 100 µM (inactive)"}, {"measurement": "GI50", "setting": "[5]", "value": "> 100 µM (inactive)"}, {"measurement": "GI50", "setting": "[6]", "value": "> 100 µM (inactive)"}, {"measurement": "GI50", "setting": "[7]", "value": "> 100 µM (inactive)"}, {"measurement": "GI50", "setting": "[8]", "value": "> 100 µM (inactive)"}, {"measurement": "GI50", "setting": "[9]", "value": "> 100 µM (inactive)"}, {"measurement": "GI50", "setting": "[10]", "value": "> 100 µM (inactive)"}, {"measurement": "GI50", "setting": "[11]", "value": "> 100 µM (inactive)"}, {"measurement": "GI50", "setting": "[12]", "value": "> 100 µM (inactive)"}, {"measurement": "GI50", "setting": "[13]", "value": "> 100", "unit": "µM"}, {"measurement": "GI50", "setting": "[14]", "value": "> 100 µM (inactive)"}, {"measurement": "GI50", "setting": "[15]", "value": "> 100 µM (inactive)"}, {"measurement": "GI50", "setting": "[16]", "value": "> 100 µM (inactive)"}, {"measurement": "GI50", "setting": "[17]", "value": "> 100 µM (inactive)"}, {"measurement": "GI50", "setting": "[18]", "value": "> 100 µM (inactive)"}, {"measurement": "GI50", "setting": "[19]", "value": "> 100 µM (inactive)"}, {"measurement": "GI50", "setting": "[20]", "value": "> 100 µM (inactive)"}, {"measurement": "GI50", "setting": "[21]", "value": "> 100 µM (inactive)"}, {"measurement": "GI50", "setting": "[22]", "value": "> 100 µM (inactive)"}, {"measurement": "GI50", "setting": "[23]", "value": "> 100 µM (inactive)"}, {"measurement": "GI50", "setting": "[24]", "value": "> 100 µM (inactive)"}, {"measurement": "GI50", "setting": "[25]", "value": "> 100 µM (inactive)"}, {"measurement": "GI50", "setting": "[26]", "value": "52 µM (inactive)"}, {"measurement": "GI50", "setting": "[27]", "value": "> 100 µM (inactive)"}, {"measurement": "GI50", "setting": "[28]", "value": "> 100 µM (inactive)"}, {"measurement": "GI50", "setting": "[29]", "value": "> 100 µM (inactive)"}, {"measurement": "GI50", "setting": "[30]", "value": "> 100 µM (inactive)"}, {"measurement": "GI50", "setting": "[31]", "value": "> 100 µM (inactive)"}, {"measurement": "GI50", "setting": "[32]", "value": "> 100 µM (inactive)"}, {"measurement": "GI50", "setting": "[33]", "value": "> 100 µM (inactive)"}, {"measurement": "GI50", "setting": "[34]", "value": "> 100 µM (inactive)"}, {"measurement": "GI50", "setting": "[35]", "value": "> 100 µM (inactive)"}, {"measurement": "GI50", "setting": "[36]", "value": "> 100 µM (inactive)"}, {"measurement": "GI50", "setting": "[37]", "value": "> 100 µM (inactive)"}, {"measurement": "GI50", "setting": "[38]", "value": "> 100 µM (inactive)"}, {"measurement": "GI50", "setting": "[39]", "value": "> 100 µM (inactive)"}, {"measurement": "GI50", "setting": "[40]", "value": "> 100 µM (inactive)"}, {"measurement": "GI50", "setting": "[41]", "value": "> 100 µM (inactive)"}, {"measurement": "GI50", "setting": "[42]", "value": "> 100 µM (inactive)"}, {"measurement": "GI50", "setting": "[43]", "value": "> 100 µM (inactive)"}, {"measurement": "GI50", "setting": "[44]", "value": "> 100 µM (inactive)"}, {"measurement": "GI50", "setting": "[45]", "value": "> 100 µM (inactive)"}, {"measurement": "GI50", "setting": "[46]", "value": "> 100 µM (inactive)"}, {"measurement": "GI50", "setting": "[47]", "value": "> 100 µM (inactive)"}, {"measurement": "GI50", "setting": "[48]", "value": "> 100 µM (inactive)"}, {"measurement": "GI50", "setting": "[49]", "value": "> 100 µM (inactive)"}, {"measurement": "GI50", "setting": "[50]", "value": "> 100 µM (inactive)"}, {"measurement": "GI50", "setting": "[51]", "value": "> 100 µM (inactive)"}, {"measurement": "GI50", "setting": "[52]", "value": "> 100 µM (inactive)"}, {"measurement": "GI50", "setting": "[53]", "value": "> 100 µM (inactive)"}, {"measurement": "GI50", "setting": "[54]", "value": "> 100 µM (inactive)"}, {"measurement": "GI50", "setting": "[55]", "value": "> 100 µM (inactive)"}]}
{"smiles": "CCOC(=O)CO/N=C\\C1=CC(=O)C2CC1C2(C)C", "note": "(stereo not given)", "values": [{"measurement": "GI50", "setting": "[2]", "value": "> 100 µM (inactive)"}, {"measurement": "GI50", "setting": "[56]", "value": "> 100 µM (inactive)"}, {"measurement": "GI50", "setting": "[3]", "value": "> 100 µM (inactive)"}, {"measurement": "GI50", "setting": "[4]", "value": "> 100 µM (inactive)"}, {"measurement": "GI50", "setting": "[5]", "value": "> 100 µM (inactive)"}, {"measurement": "GI50", "setting": "[6]", "value": "> 100 µM (inactive)"}, {"measurement": "GI50", "setting": "[7]", "value": "> 100 µM (inactive)"}, {"measurement": "GI50", "setting": "[8]", "value": "> 100 µM (inactive)"}, {"measurement": "GI50", "setting": "[9]", "value": "> 100 µM (inactive)"}, {"measurement": "GI50", "setting": "[10]", "value": "> 100 µM (inactive)"}, {"measurement": "GI50", "setting": "[11]", "value": "> 100 µM (inactive)"}, {"measurement": "GI50", "setting": "[12]", "value": "> 100 µM (inactive)"}, {"measurement": "GI50", "setting": "[13]", "value": "> 100", "unit": "µM"}, {"measurement": "GI50", "setting": "[14]", "value": "> 100 µM (inactive)"}, {"measurement": "GI50", "setting": "[15]", "value": "> 100 µM (inactive)"}, {"measurement": "GI50", "setting": "[16]", "value": "> 100 µM (inactive)"}, {"measurement": "GI50", "setting": "[17]", "value": "> 100 µM (inactive)"}, {"measurement": "GI50", "setting": "[19]", "value": "> 100 µM (inactive)"}, {"measurement": "GI50", "setting": "[20]", "value": "> 100 µM (inactive)"}, {"measurement": "GI50", "setting": "[24]", "value": "> 100 µM (inactive)"}, {"measurement": "GI50", "setting": "[25]", "value": "> 100 µM (inactive)"}, {"measurement": "GI50", "setting": "[26]", "value": "> 100 µM (inactive)"}, {"measurement": "GI50", "setting": "[57]", "value": "30.1 µM (inactive)"}, {"measurement": "GI50", "setting": "[28]", "value": "> 100 µM (inactive)"}, {"measurement": "GI50", "setting": "[29]", "value": "> 100 µM (inactive)"}, {"measurement": "GI50", "setting": "[30]", "value": "> 100 µM (inactive)"}, {"measurement": "GI50", "setting": "[31]", "value": "> 100 µM (inactive)"}, {"measurement": "GI50", "setting": "[32]", "value": "> 100 µM (inactive)"}, {"measurement": "GI50", "setting": "[33]", "value": "> 100 µM (inactive)"}, {"measurement": "GI50", "setting": "[34]", "value": "> 100 µM (inactive)"}, {"measurement": "GI50", "setting": "[58]", "value": "> 100 µM (inactive)"}, {"measurement": "GI50", "setting": "[35]", "value": "> 100 µM (inactive)"}, {"measurement": "GI50", "setting": "[36]", "value": "> 100 µM (inactive)"}, {"measurement": "GI50", "setting": "[37]", "value": "> 100 µM (inactive)"}, {"measurement": "GI50", "setting": "[38]", "value": "> 100 µM (inactive)"}, {"measurement": "GI50", "setting": "[39]", "value": "> 100 µM (inactive)"}, {"measurement": "GI50", "setting": "[41]", "value": "> 100 µM (inactive)"}, {"measurement": "GI50", "setting": "[42]", "value": "> 100 µM (inactive)"}, {"measurement": "GI50", "setting": "[43]", "value": "> 100 µM (inactive)"}, {"measurement": "GI50", "setting": "[44]", "value": "> 100 µM (inactive)"}, {"measurement": "GI50", "setting": "[45]", "value": "> 100 µM (inactive)"}, {"measurement": "GI50", "setting": "[46]", "value": "> 100 µM (inactive)"}, {"measurement": "GI50", "setting": "[47]", "value": "> 100 µM (inactive)"}, {"measurement": "GI50", "setting": "[48]", "value": "> 100 µM (inactive)"}, {"measurement": "GI50", "setting": "[49]", "value": "> 100 µM (inactive)"}, {"measurement": "GI50", "setting": "[51]", "value": "> 100 µM (inactive)"}, {"measurement": "GI50", "setting": "[52]", "value": "> 100 µM (inactive)"}, {"measurement": "GI50", "setting": "[53]", "value": "> 100 µM (inactive)"}, {"measurement": "GI50", "setting": "[54]", "value": "> 100 µM (inactive)"}, {"measurement": "GI50", "setting": "[55]", "value": "> 100 µM (inactive)"}]}
